{
  "source": "paper PMC3156899",
  "about": "(Clinical cancer research : an official journal of the …, 2011)",
  "tested_on": "pp65#23-specific CD4+ T cells",
  "experiment": "Cytokine ELISPOT / ELISA of pp65#23-specific CD4+ T cells",
  "type": "cell-based, human",
  "data": [
    {"substance": "221DQYVKVYLESFCEDVPSGKL240 [pp65#23]", "values": [
      {"measurement": "IL-10 and IL-17 secretion", "setting": "IL-10 ELISPOT, IL-17 ELISA (limit of detection 15.0 pg/ml)", "value": "no IL-10 or IL-17 was detected"},
      {"measurement": "IFN-γ and IL-4 secretion (ELISPOT)", "setting": "antigen-specific, T2/DP4 pulsed with peptide, Figure 3B", "value": "predominantly secreted IFN-γ and much less IL-4"},
      {"measurement": "IL-2 production (ELISPOT)", "setting": "upon stimulation, Figure 3B", "value": "produced IL-2"}
    ]}
  ]
}
